Assay results reported in patent US6344350B1, “Method for degradation of pinenes by bacillus isolates” (priority 1997, dated 2002).

Legend:
pinene hydroxylase = assay: Pinene hydroxylase activity in crude cell extracts; type: biochemical, Bacillus BR424; settings: for pinene hydroxylase activity with cofactor: NADPH and NADH in place of FAD and potassium ferricyanide
Bacillus isolate BR425 = assay: Growth of BR425 on monoterpenes as carbon source (CFU); type: cell-based; settings: for growth in media containing the monoterpene as the carbon source: BR425; for optimal concentration for growth: BR425, M9 salts, monoterpene as carbon source, 50° C.
Method: For examination of growth rates on various substrates and metabolite production, BR425 was grown in 100 ml serum bottles containing 40 ml M9 salts and various concentrations of either α-pinene, β-pinene, limonene, carveol, carvone, or pinocarveol as the carbon source. The bottles were sealed with TEFLON-coated stoppers and aluminum caps (TEFLON is a trademark owned by E. I. du Pont and Nemours, Wilmington, Del.). Then the bottles were incubated in a water bath gyrorotatory shaker at 50° C. Growth of BR425 was assayed after incubations of 24, 48, and 72 hours as number of colony forming units (CFU).

BR424 = assay: Growth of BR424 on monoterpenes; type: cell-based, Bacillus isolate BR424

Cc1cc2nc3c(=O)[nH]c(=O)nc-3n(C[C@H](O)[C@H](O)[C@H](O)COP(=O)(O)OP(=O)(O)OC[C@H]3O[C@@H](n4cnc5c(N)ncnc54)[C@H](O)[C@@H]3O)c2cc1C [FAD, Flavin Adenine Dinucleotide]
Enzyme activity (pinene hydroxylase; addition 0.1 mM FAD): 0.04 U/ml | Enzyme activity (pinene hydroxylase; addition 1 mM FAD): 0.47 U/ml

NC(=O)C1=CN([C@@H]2O[C@H](COP(=O)(O)OP(=O)(O)OC[C@H]3O[C@@H](n4cnc5c(N)ncnc54)[C@H](O)[C@@H]3O)[C@@H](O)[C@H]2O)C=CC1 [NADH]
pinene hydroxylase activity with cofactor (pinene hydroxylase): No pinene hydroxylase activity was detected

NC(=O)C1=CN([C@@H]2O[C@H](COP(=O)(O)OP(=O)(O)OC[C@H]3O[C@@H](n4cnc5c(N)ncnc54)[C@H](OP(=O)(O)O)[C@@H]3O)[C@@H](O)[C@H]2O)C=CC1 [NADPH]
pinene hydroxylase activity with cofactor (pinene hydroxylase): No pinene hydroxylase activity was detected

C=C(C)C1CC=C(C)[C@@H](O)C1 (stereo partly drawn) [carveol]
growth in media containing the monoterpene as the carbon source (Bacillus isolate BR425): shown to grow | optimal concentration for growth (Bacillus isolate BR425): 0.05%

C=C(C)C1CC=C(C)C(=O)C1 (stereo not drawn) [carvone]
growth in media containing the monoterpene as the carbon source (Bacillus isolate BR425): shown to grow | optimal concentration for growth (Bacillus isolate BR425): 0.01%

C=C(C)[C@H]1CC=C(C)CC1 [limonene]
growth in media containing the monoterpene as the carbon source (Bacillus isolate BR425): shown to grow | growth in media containing the monoterpene (BR424): did not appear to be able to grow

CC1(C)C2CC=C(CO)C1C2 (stereo not drawn) [myrtenol]
growth in media containing the monoterpene as the carbon source (Bacillus isolate BR425): did not appear to grow

CC1(C)C2CC3OC3(C)C1C2 (stereo not drawn) [pinene epoxide]
growth in media containing the monoterpene as the carbon source (Bacillus isolate BR425): did not appear to grow

CC1=CCC2CC1C2(C)C (stereo not drawn) [α-pinene]
optimal concentration for growth (Bacillus isolate BR425): 0.2% | growth in media containing the monoterpene (BR424): can grow

C=C1CCC2CC1C2(C)C (stereo not drawn) [β-pinene]
growth in media containing the monoterpene as the carbon source (Bacillus isolate BR425): shown to grow | optimal concentration for growth (Bacillus isolate BR425): 0.2% | growth in media containing the monoterpene (BR424): can grow

myrtenal
growth in media containing the monoterpene as the carbon source (Bacillus isolate BR425): did not appear to grow
